Results taken from US20020123513A1, “Use of glycogen phosphorylase inhibitors to inhibit tumor growth” (priority 2000, published 2002).

Experiments:
[1] = molecular target: T1, human liver glycogen phosphorylase a (HLGPa) (Homo sapiens, UniProt P06737); assay: GPa activity assay, reverse direction (release of inorganic phosphate from glucose-1-phosphate), HLGPa; type: biochemical; conditions: recombinant human liver GPa, glucose present
T1 construct: made in house; host or cells: E. coli XL-1 Blue (pKK233-2) or Sf9 insect cells (pBlueBac II baculovirus)
T1 sequence (P06737 1-847): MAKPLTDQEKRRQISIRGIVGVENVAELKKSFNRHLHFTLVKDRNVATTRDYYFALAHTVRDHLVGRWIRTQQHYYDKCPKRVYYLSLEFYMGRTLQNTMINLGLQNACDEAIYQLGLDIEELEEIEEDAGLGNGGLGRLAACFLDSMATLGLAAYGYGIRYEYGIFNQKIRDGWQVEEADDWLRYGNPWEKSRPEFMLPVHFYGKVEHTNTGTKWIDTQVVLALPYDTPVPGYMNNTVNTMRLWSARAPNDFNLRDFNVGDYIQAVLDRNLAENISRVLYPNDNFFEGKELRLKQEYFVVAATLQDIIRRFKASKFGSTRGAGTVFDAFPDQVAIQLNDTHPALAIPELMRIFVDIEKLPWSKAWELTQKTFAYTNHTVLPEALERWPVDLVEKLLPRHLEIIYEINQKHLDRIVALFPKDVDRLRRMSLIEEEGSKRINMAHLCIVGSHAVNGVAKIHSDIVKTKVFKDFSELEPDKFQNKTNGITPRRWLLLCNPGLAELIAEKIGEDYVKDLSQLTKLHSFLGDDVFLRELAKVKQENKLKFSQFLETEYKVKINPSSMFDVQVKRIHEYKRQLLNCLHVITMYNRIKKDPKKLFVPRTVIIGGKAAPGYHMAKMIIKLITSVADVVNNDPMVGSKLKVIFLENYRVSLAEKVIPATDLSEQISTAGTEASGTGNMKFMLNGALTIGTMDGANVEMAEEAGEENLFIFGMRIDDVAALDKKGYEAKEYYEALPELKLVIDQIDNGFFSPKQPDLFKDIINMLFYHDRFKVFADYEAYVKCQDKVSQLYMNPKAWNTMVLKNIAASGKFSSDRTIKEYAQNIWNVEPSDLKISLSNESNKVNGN
Procedure: (§1) In this invention, enzyme activity is determined by measurement of the reverse activity of GPa, i.e., by measuring the release of phosphate due to the incorporation of glucose-1-phosphate into glycogen, where the amount of phosphate released is determined using the spectrophotometric method and experimental conditions described hereinbelow.
(§2) The three different purified glycogen phosphorylase (GP) isoenzymes from a human source, wherein glycogen phosphorylase is in the activated “a” state (referred to as glycogen phosphorylase a, or the abbreviation GPa), and referred to here as human liver glycogen phosphorylase a (HLGPa), human muscle glycogen phosphorylase a (HMGPa), and human brain glycogen phosphorylase a (HBGPa), can be obtained by the following procedures.
(§3) The effect of the compounds of Formula I or IA on the activity of the activated form of glycogen phosphorylase (GPa) can be determined by one of two methods; glycogen phosphorylase a activity is measured in the forward direction by monitoring the production of glucose-1-phosphate from glycogen or by following the reverse reaction, measuring glycogen synthesis from glucose-I-phosphate by the release of inorganic phosphate. All reactions are run in triplicate in 96-well microtiter plates and the change in absorbance due to formation of the reaction product is measured at the wavelength specified below in a MCC/340 MKII Elisa Reader (Lab Systems, Finland), connected to a Titertech Microplate Stacker (ICN Biomedical Co, Huntsville, Ala.).
(§4) Buffer B is at pH 7.2 and contains 50 mM HEPES, 100 mM KCl, 2.5 mM EGTA, 2.5 mM MgCl2 and 0.5 mM dithiothreitol. […] The compounds to be tested are added as 5 μL of solution in 14% DMSO prior to the addition of the enzyme. […] After a 20 minute incubation at room temperature, the absorbance is measured at 620 nm.
(§5) The above assays carried out with a range of concentrations of test compound allows the determination of an IC50 value (as defined hereinabove, see e.g., p. 14) for the in vitro inhibition of GPa enzyme activity by that test compound.

[2] = molecular target: T2, human muscle glycogen phosphorylase a (HMGPa) (Homo sapiens, UniProt P11217); assay: GPa activity assay, reverse direction (release of inorganic phosphate from glucose-1-phosphate), HMGPa; type: biochemical; conditions: recombinant human muscle GPa, glucose present
T2 construct: made in house; host or cells: E. coli XL-1 Blue (pKK233-2)
T2 sequence (P11217 1-842): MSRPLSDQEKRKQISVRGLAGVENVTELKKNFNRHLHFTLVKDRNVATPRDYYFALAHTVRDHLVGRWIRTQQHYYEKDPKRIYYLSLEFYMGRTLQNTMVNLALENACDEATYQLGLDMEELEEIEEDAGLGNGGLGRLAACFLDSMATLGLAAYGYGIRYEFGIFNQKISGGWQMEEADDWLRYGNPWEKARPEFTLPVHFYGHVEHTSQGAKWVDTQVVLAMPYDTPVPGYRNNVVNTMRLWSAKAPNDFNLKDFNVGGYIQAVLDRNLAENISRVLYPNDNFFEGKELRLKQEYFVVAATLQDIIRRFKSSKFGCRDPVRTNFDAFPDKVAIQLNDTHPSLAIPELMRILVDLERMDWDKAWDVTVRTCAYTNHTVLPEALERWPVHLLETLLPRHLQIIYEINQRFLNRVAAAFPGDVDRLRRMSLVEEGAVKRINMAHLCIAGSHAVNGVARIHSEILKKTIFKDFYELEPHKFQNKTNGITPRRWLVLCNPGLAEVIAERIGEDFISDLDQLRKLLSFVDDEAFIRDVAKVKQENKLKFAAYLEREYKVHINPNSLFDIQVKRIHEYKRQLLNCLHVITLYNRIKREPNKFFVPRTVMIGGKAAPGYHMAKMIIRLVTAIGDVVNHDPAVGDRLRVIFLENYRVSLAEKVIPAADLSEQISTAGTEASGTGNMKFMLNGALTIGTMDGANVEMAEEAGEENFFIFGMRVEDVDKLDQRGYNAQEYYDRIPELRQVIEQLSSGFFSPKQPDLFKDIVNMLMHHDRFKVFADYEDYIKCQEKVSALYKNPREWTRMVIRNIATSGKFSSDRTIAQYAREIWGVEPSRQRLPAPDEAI
Procedure: as §1, §2, §3, §4, §5

An IC50 [1] of 30 nM and an IC50 [2] of 97 nM were found for `O=C(N[C@@H](Cc1ccccc1)C(=O)N1C[C@@H](O)[C@@H](O)C1)c1cc2cc(Cl)ccc2[nH]1` [5-chloro-1H-indole-2-carboxylic acid [(1S)-benzyi-2-(cis-3,4-dihydroxypyrrolidin-1-yl)-2-oxo-ethyl]-amide] in this work.
An IC50 [1] of 54 nM and an IC50 [2] of 96 nM were found for `O=C(N[C@@H](Cc1ccccc1)[C@@H](O)C(=O)N1CC[C@H](O)C1)c1cc2cc(Cl)ccc2[nH]1` [5-chloro-1H-indole-2-carboxylic acid [(1S)-benzyl-(2R)-hydroxy-3-((3S)-hydroxy-pyrrolidin-1-yl)-3-oxopropyl]-amide] in this work.
An IC50 [1] of 307 nM and an IC50 [2] of 433 nM were found for `O=C(NCC(=O)N1CCSC1)c1cc2cc(Cl)ccc2[nH]1` [5-chloro-1H-indole-2-carboxylic acid (2-oxo-2-thiazolidin-3-yl-ethyl)-amide] in this work.
An IC50 [1] of 45 nM and an IC50 [2] of 85 nM were found for `O=C(NC(Cc1ccccc1)C(=O)N1CCC(O)C1)c1cc2cc(Cl)ccc2[nH]1` (centres unmarked) [5-chloro-1H-indole-2-carboxylic acid [1-benzyl-2-(3-hydroxypyrrolidin-1-yl)-2-oxo-ethyl]-amide] in this work.
An IC50 [1] of 65 nM and an IC50 [2] of 121 nM were found for `O=C(N[C@@H](Cc1ccccc1)C(=O)N1CC(O)C1)c1cc2cc(Cl)ccc2[nH]1` [5-chloro-1H-indole-2-carboxylic acid [(1S)-benzyl-2-(3-hydroxy-azetidin-1-yl)-2-oxo-ethyl]-amide] in this work.
An IC50 [1] of 236 nM and an IC50 [2] of 706 nM were found for `O=C(N[C@@H](Cc1ccccc1)[C@@H](O)C(=O)N1CC(O)C1)c1cc2cc(Cl)ccc2[nH]1` [5-chloro-1H-indole-2-carboxylic acid [(1S)-benzyl-3-((3-hydroxyazetidin-1-yl)-(2R)-hydroxy-3-oxopropyl]-amide] in this work.
An IC50 [1] of 65 nM and an IC50 [2] of 84 nM were found for `O=C(N[C@@H](Cc1ccccc1)C(=O)N1CC(=NO)C1)c1cc2cc(Cl)ccc2[nH]1` [5-chloro-1H-indole-2-carboxylic acid [(1S)-benzyl-2-(3-hydroxyimino-azetidin-1-yl)-2-oxo-ethyl]-amide] in this work.
An IC50 [1] of 73 nM and an IC50 [2] of 90 nM were found for `O=C(N[C@@H](Cc1ccccc1)[C@@H](O)C(=O)N1C[C@H](O)[C@@H](O)C1)c1cc2cc(Cl)ccc2[nH]1` [5-chloro-1H-indole-2-carboxylic acid [(1S)-benzyl-(2R)-hydroxy-3-((3S,4S)-dihydroxy-pyrrolidin-1-yl)-3-oxopropyl]-amide] in this work.
An IC50 [1] of 59 nM and an IC50 [2] of 385 nM were found for `O=C(N[C@@H](Cc1ccccc1)[C@@H](O)C(=O)N1C[C@@H](O)[C@@H](O)C1)c1cc2cc(Cl)ccc2[nH]1` [5-chloro-1H-indole-2-carboxylic acid [(1S)-benzyl-3-(cis-3,4-dihydroxy-pyrrolidin-1-yl)-(2R)-hydroxy-3-oxopropyl]-amide] in this work.
An IC50 [1] of 137 nM and an IC50 [2] of 71 nM were found for `O=C(N[C@@H](Cc1ccccc1)C(=O)N1C[C@H](O)[C@@H](O)C1)c1cc2cc(Cl)ccc2[nH]1` [5-chloro-1H-indole-2-carboxylic acid [(1S)-benzyl-2-((3S,4S)-dihydroxy-pyrrolidin-1-yl)-2-oxo-ethyl-amide] in this work.
